Measurements as given in US8415469B2, “Compounds and methods for kinase modulation, and indications therefor” (Plexxikon Inc., priority 2005, dated 2013).

Tests used:
Type in all cases: biochemical
B-Raf V600E = molecular target: T1, B-Raf V600E (Homo sapiens, UniProt P15056, V600E); assay: AlphaScreen kinase assay, B-Raf V600E; details: read-out: IC50, activity toward kinase B-Raf V600E
T1 construct: P4254. pFastBacBD-CDC37 BRAF D437-K722-X, V600E; His6 with pFastBac HT leader (TEV site) (N); made in house; host or cells: Sf9 (baculovirus; chaperone CDC37 co-expressed)

Btk = molecular target: T2, Btk (Homo sapiens, UniProt Q06187); assay: Z'-Lyte FRET kinase assay (Invitrogen), Btk; details: read-out: IC50, activity toward kinase Btk
T2 construct: purchased Invitrogen (assay run by Invitrogen)

FGFR1 = molecular target: T3, FGFR1 (Homo sapiens, UniProt P11362, C488A/C584S); assay: AlphaScreen kinase assay, FGFR1; details: read-out: IC50, activity toward kinase FGFR
T3 construct: P1351.pET N6 BI-PTP FGFR A458-E765-X C488A, C584S; made in house; host or cells: E. coli (PTP1B co-expressed)

Flt4 = molecular target: T4, Flt4 (Homo sapiens, UniProt P35916); assay: AlphaScreen kinase assay, Flt4; details: read-out: IC50, activity toward kinase Flt4
T4 construct: purchased ProQinase GmbH (Freiburg, Germany)
Description: AlphaScreen assay was used to screen additional kinases. The assay is similarly dependent on the phosphorylation of a peptide substrate. In this assay, an antibody that recognizes phosphorylated substrate is bound to an acceptor bead. The peptide substrate is attached to biotin, which binds to a donor head that contains streptavidin. Thus phosphorylated substrate is bound by antibody and streptavidin, bringing the donor and acceptor heads into close proximity when kinase is not inhibited. The donor produces singlet oxygen which results in emission from the acceptor when they are in close proximity. Conversely, when kinase is inhibited, the donor and acceptor beads are not associated and the emission from the acceptor is reduced.
AlphaScreen assays were done using compounds dissolved in DMSO to a concentration of 20 mM. The compounds were diluted accordingly to the desired final concentrations in each sample well, using 1:3 serial dilution for a total of 8 concentration points.

Kdr = molecular target: T5, Kdr (Homo sapiens, UniProt P35968); assay: Z'-Lyte FRET kinase assay (Invitrogen), Kdr; details: read-out: IC50, activity toward kinase Kdr
T5 construct: purchased Invitrogen (assay run by Invitrogen)

Kit = molecular target: T6, Kit (Homo sapiens, UniProt P10721); assay: AlphaScreen kinase assay, Kit; details: read-out: IC50, activity toward kinase Kit
T6 construct: P1332.N6 BI PTP KIT M552-K948-X COD; His6 (N); made in house; host or cells: E. coli (PTP1B co-expressed)

Ret = molecular target: T7, Ret (Homo sapiens, UniProt P07949); assay: AlphaScreen kinase assay, Ret; details: read-out: IC50, activity toward kinase Ret
T7 construct: P1378.pET-SF BI-PTP RET H661-R1012 HIS; made in house
T7 sequence (P07949 with tags, fused parts or gaps): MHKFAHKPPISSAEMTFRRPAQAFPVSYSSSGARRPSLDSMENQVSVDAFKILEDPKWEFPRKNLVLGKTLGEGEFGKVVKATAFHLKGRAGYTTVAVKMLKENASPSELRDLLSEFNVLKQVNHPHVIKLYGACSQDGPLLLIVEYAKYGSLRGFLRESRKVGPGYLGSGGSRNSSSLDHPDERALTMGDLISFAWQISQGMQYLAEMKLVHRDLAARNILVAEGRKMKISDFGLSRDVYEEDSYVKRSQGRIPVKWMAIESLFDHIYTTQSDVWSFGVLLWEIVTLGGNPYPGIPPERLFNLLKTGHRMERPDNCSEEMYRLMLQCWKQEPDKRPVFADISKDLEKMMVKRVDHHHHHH

Yes = molecular target: T8, Yes (Homo sapiens, UniProt P07947); assay: Z'-Lyte FRET kinase assay (Invitrogen), Yes; details: read-out: IC50, activity toward kinase Yes
T8 construct: purchased Invitrogen (Carlsbad, Calif.), screening service
Procedure, shortened: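 Each kinase phosphorylated a FRET peptide (2 μM) at 10 μM ATP in 50 mM HEPES pH 7.5, 50 mM MgCl2, 5 mM EGTA, 0.05% BRIJ-35 with 1% DMSO, 1 h at room temperature. After a 1 h protease development step, coumarin/fluorescein emission ratio was read across serial compound dilutions.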

Jnk1 = molecular target: T9, Jnk1 (Homo sapiens, UniProt P45983); assay: AlphaScreen kinase assay, Jnk1; details: read-out: IC50, activity toward kinase Jnk1
T9 construct: purchased Upstate Biotechnology

Jnk2 = molecular target: T10, Jnk2 (Homo sapiens, UniProt P45984); assay: AlphaScreen kinase assay, Jnk2; details: read-out: IC50, activity toward kinase Jnk2
T10 construct: purchased Roche Protein Expression Group (Indianapolis, IN)
Procedure, shortened: (§1)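 Kinase activity was measured as phosphorylation of a biotinylated peptide, detected with streptavidin donor and phospho-antibody acceptor beads. Compounds, from 20 mM DMSO stocks, were tested at eight concentrations in 1:3 serial dilution.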

Jnk3 = molecular target: T11, Jnk3 (Homo sapiens, UniProt P53779); assay: AlphaScreen kinase assay, Jnk3; details: read-out: IC50, activity toward kinase Jnk3
T11 construct: purchased Upstate Biotechnology

Zap70 = molecular target: T12, Zap70 (Homo sapiens, UniProt P43403); assay: AlphaScreen kinase assay, Zap70; details: read-out: IC50, activity toward kinase Zap70
T12 construct: P1868.pFastBac1 ZAP70 D327-G606 HIS, WT; His7 (HHHHHHH) (C); made in house
T12 sequence (P43403 with tags, fused parts or gaps): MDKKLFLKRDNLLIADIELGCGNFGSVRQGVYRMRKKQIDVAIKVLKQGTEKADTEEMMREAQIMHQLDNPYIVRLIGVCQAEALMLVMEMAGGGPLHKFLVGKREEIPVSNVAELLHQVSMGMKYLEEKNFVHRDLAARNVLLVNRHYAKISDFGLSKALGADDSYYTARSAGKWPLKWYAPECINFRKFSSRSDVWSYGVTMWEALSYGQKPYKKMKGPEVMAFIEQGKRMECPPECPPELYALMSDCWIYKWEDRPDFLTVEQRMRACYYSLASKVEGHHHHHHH
Procedure, shortened: as §1

Abl = molecular target: T13, Abl (Homo sapiens, UniProt P00519); assay: AlphaScreen kinase assay, Abl; details: read-out: activity toward kinase Abl, IC50
T13 construct: P1121. pET-SPEC BI-PTP Abl G227-V515-X; His6 (N); made in house; host or cells: E. coli (PTP1B co-expressed)
T13 sequence (P00519 with tags, fused parts or gaps): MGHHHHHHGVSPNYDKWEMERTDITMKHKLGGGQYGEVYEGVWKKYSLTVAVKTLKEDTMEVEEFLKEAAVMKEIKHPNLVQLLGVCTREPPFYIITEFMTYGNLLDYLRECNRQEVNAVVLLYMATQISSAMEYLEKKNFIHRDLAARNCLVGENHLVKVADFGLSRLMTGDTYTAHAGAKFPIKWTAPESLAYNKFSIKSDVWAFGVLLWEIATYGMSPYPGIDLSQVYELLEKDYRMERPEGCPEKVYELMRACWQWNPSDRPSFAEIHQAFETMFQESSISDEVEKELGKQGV
Procedure, shortened: as §1

Fak = molecular target: T14, Fak (Homo sapiens, UniProt Q05397); assay: AlphaScreen kinase assay, Fak; details: read-out: IC50, activity toward kinase Fak
T14 construct: P1358.pFastBacHtb FAK S411-Q686-X; His6 with pFastBacHTb leader (TEV site) (N); made in house; host or cells: Sf9 (baculovirus)

Flt1 = molecular target: T15, Flt1 (Homo sapiens, UniProt P17948); assay: AlphaScreen kinase assay, Flt1; details: read-out: IC50, activity toward kinase Flt1
T15 construct: P1826.pETN6 BI-PTP FLT1 M799-D1165-X WT; His6 (N); made in house; host or cells: E. coli (PTP1B co-expressed)
T15 sequence (P17948 with tags, fused parts or gaps): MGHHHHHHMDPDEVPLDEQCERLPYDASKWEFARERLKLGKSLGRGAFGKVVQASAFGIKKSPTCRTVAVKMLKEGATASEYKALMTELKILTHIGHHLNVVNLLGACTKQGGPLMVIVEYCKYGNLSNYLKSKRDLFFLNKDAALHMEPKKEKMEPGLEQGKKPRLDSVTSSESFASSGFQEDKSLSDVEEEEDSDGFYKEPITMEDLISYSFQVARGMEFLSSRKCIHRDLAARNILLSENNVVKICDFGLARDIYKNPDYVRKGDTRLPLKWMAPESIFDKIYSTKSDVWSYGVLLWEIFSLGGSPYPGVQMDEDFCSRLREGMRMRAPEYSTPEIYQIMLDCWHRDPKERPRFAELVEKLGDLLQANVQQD

Src = molecular target: T16, Src (Homo sapiens, UniProt P12931); assay: AlphaScreen kinase assay, Src; details: read-out: IC50, activity toward kinase Src
T16 construct: P1144. pET-N6 BI-PTP SRC V86-L536-X; made in house

MAP4K4 = MAP4K4 (Homo sapiens, UniProt O95819); assay: AlphaScreen kinase assay, MAP4K4; details: read-out: IC50, activity toward kinase MAP4K4

T4 sequence (P35916 25-1363): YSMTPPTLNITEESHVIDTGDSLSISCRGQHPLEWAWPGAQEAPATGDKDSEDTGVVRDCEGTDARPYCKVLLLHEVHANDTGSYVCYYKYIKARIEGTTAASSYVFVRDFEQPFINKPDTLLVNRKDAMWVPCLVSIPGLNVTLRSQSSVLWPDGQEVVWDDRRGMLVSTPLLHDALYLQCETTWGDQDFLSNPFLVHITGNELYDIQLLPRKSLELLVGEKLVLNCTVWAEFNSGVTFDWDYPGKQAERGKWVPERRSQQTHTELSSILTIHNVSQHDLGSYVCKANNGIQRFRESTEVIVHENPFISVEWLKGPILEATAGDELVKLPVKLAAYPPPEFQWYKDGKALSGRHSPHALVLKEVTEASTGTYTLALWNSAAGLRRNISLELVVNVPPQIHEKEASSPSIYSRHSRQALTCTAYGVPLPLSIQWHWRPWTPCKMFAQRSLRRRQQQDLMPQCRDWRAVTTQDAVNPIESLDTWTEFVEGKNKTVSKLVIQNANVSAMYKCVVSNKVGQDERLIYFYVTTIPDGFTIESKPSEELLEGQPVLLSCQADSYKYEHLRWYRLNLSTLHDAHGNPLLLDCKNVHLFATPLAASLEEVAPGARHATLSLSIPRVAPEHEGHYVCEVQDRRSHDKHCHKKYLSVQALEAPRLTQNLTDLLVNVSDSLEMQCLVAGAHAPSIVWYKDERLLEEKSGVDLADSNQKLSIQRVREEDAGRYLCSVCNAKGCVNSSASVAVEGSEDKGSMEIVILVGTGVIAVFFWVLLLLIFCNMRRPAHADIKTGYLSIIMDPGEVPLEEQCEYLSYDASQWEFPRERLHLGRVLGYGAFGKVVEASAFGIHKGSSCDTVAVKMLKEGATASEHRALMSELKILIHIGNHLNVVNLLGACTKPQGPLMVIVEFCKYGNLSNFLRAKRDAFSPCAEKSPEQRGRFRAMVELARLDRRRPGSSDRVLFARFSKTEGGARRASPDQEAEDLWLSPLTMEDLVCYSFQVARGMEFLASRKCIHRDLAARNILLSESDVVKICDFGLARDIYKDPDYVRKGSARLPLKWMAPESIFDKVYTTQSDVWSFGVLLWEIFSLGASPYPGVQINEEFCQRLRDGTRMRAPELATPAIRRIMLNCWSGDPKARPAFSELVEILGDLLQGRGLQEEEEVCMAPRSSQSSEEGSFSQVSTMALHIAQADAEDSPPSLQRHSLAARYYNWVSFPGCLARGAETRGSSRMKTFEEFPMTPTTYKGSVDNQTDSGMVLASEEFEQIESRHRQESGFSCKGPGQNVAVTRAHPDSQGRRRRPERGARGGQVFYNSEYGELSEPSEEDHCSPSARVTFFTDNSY
T1 sequence (P15056 with tags, fused parts or gaps V600E): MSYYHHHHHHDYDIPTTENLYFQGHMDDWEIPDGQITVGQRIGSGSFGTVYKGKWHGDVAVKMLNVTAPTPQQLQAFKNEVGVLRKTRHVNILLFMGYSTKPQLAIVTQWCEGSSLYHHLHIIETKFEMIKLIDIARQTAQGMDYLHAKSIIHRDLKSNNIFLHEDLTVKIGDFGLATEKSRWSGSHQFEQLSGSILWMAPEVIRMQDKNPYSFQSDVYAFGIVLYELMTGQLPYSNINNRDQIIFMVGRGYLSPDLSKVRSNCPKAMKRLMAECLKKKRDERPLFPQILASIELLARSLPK
T5 sequence (P35968 20-1356): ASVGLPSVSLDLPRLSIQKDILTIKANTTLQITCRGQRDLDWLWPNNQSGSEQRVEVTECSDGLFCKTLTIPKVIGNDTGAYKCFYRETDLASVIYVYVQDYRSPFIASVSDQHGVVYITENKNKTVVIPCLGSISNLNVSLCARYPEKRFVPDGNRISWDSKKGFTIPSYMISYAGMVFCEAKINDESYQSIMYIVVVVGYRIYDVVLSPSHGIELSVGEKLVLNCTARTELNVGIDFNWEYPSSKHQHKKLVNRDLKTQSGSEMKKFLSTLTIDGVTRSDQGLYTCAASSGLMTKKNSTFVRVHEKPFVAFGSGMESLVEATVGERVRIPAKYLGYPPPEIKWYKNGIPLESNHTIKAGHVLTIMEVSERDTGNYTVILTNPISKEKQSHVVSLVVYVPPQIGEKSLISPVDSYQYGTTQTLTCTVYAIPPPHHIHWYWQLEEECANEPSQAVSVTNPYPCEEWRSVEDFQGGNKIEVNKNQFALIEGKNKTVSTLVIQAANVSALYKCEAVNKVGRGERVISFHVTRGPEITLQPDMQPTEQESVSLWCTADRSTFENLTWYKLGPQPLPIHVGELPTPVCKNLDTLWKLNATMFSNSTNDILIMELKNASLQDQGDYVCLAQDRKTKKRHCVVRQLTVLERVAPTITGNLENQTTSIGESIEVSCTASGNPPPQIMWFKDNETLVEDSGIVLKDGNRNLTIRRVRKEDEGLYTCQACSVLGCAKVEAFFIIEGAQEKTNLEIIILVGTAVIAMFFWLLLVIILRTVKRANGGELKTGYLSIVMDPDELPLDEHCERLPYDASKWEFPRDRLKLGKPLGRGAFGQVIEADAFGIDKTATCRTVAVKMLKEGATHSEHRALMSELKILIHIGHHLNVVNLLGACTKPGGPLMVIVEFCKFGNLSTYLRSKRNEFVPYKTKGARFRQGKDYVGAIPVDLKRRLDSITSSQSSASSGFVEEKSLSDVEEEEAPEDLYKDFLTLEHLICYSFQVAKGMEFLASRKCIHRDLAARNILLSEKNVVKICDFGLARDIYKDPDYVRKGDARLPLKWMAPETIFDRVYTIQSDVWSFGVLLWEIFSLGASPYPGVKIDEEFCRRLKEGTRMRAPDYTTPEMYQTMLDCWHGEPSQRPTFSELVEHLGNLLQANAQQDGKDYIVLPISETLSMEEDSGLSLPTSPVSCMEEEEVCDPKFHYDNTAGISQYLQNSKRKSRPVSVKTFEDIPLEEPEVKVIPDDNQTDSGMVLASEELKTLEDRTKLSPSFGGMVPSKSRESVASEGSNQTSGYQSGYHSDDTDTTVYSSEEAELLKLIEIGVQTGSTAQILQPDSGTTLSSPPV
T3 sequence (P11362 458-765 C488A/C584S): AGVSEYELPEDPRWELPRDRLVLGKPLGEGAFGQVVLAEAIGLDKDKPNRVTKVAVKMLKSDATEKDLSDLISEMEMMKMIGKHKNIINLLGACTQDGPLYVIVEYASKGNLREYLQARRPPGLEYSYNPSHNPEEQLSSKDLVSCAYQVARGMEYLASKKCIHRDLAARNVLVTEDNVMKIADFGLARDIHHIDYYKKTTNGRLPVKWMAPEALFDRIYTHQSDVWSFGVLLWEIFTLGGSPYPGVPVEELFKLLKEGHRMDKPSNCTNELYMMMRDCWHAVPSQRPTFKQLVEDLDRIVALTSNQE
T6 sequence (P10721 with tags, fused parts or gaps): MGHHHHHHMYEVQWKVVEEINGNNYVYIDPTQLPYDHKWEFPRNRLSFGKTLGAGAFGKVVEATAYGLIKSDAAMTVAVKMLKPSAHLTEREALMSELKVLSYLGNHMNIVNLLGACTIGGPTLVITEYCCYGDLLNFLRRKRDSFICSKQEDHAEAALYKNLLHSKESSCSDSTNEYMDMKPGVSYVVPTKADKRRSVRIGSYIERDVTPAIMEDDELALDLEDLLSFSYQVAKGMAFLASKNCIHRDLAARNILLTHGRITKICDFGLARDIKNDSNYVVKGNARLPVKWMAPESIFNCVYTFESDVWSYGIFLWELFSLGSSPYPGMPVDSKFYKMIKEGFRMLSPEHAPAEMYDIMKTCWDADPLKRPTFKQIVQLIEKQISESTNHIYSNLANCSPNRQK
T16 sequence (P12931 with tags, fused parts or gaps): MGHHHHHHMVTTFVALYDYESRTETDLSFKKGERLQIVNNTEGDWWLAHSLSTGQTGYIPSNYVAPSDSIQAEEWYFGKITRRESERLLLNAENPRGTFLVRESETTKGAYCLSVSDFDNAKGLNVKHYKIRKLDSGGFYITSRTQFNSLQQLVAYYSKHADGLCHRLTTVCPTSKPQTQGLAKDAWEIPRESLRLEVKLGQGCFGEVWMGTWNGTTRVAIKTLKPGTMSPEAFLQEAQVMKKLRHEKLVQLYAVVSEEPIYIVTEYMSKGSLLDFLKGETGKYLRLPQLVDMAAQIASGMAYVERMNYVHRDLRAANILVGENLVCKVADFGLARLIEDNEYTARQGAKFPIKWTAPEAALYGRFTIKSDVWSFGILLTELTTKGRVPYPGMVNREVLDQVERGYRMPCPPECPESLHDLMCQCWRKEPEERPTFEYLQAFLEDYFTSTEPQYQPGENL
T8 sequence (P07947 whole entry): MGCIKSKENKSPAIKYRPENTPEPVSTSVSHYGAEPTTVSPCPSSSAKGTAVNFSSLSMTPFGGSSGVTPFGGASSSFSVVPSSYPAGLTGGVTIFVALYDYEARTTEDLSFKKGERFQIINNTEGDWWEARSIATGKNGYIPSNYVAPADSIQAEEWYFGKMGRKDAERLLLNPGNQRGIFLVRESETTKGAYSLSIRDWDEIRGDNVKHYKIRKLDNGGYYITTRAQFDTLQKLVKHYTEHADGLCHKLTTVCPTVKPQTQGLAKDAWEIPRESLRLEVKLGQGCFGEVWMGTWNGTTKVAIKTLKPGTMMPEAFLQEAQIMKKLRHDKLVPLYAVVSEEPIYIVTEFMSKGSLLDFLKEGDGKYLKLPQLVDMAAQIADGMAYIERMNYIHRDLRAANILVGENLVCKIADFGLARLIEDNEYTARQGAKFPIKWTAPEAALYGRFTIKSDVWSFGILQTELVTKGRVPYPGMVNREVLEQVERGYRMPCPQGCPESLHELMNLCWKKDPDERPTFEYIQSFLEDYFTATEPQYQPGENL
T14 sequence (Q05397 411-686): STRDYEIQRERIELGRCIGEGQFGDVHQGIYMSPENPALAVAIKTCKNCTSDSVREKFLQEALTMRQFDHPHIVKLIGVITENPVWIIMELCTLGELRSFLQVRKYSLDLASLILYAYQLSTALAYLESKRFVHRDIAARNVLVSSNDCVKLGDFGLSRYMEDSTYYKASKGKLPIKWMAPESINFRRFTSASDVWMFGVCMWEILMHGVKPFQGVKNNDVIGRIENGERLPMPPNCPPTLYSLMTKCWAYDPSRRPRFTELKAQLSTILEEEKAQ

SMILES | IC50 (B-Raf V600E) [µM] | IC50 (Btk) [µM] | IC50 (FGFR1) [µM] | IC50 (Flt4) [µM] | IC50 (Kdr) [µM] | IC50 (Kit) [µM] | IC50 (Ret) [µM] | IC50 (Yes) [µM] | IC50 (Jnk1) [µM] | IC50 (Jnk2) [µM] | IC50 (Jnk3) [µM] | IC50 (Abl) [µM] | IC50 (Fak) [µM] | IC50 (Flt1) [µM] | IC50 (Src) [µM] | IC50 (Zap70) [µM] | IC50 (MAP4K4) [µM]
COc1cccc(C(=O)c2c[nH]c3ncc(-c4cccs4)cc23)c1 [Compound P-0204] |  |  | ≤ 10 | ≤ 10 | ≤ 10 | ≤ 10 | ≤ 10 |  | ≤ 10 | ≤ 10 | ≤ 10 |  |  |  |  |  | 
Cc1cc(C(=O)c2c[nH]c3ncc(-c4cccc(C(N)=O)c4)cc23)n(C)n1 [Compound P-0224] |  |  |  | ≤ 10 | ≤ 10 | ≤ 10 | ≤ 10 |  |  |  |  | ≤ 10 | ≤ 10 | ≤ 10 |  |  | 
O=C(c1cccc(F)c1)c1c[nH]c2nccc(-c3cc(F)cc(F)c3)c12 [Compound P-0316] |  |  | ≤ 10 | ≤ 10 | ≤ 10 | ≤ 10 | ≤ 10 |  |  |  |  | ≤ 10 |  |  | ≤ 10 |  | 
COc1cccc(C(=O)C2C=Nc3nccc(-c4cc(F)cc(F)c4)c32)c1 (centres unmarked) [Compound P-0453] | ≤ 10 |  | ≤ 10 | ≤ 10 |  | ≤ 10 | ≤ 10 |  |  |  |  | ≤ 10 |  |  | ≤ 10 |  | 
O=C(c1ccc2ccccc2c1)c1c[nH]c2ncccc12 [Compound P-0495] |  |  | ≤ 10 | ≤ 10 | ≤ 10 | ≤ 10 | ≤ 10 |  |  |  |  |  |  |  |  | ≤ 10 | ≤ 10

More lines, main results first:

IC50 (B-Raf V600E) [µM] | IC50 (Btk) [µM] | IC50 (FGFR1) [µM] | IC50 (Flt4) [µM] | IC50 (Kdr) [µM] | IC50 (Kit) [µM] | IC50 (Ret) [µM] | IC50 (Yes) [µM] | IC50 (Jnk1) [µM] | IC50 (Jnk2) [µM] | IC50 (Jnk3) [µM] | IC50 (Abl) [µM] | IC50 (Fak) [µM] | IC50 (Flt1) [µM] | IC50 (Src) [µM] | SMILES | IC50 (Zap70) [µM] | IC50 (MAP4K4) [µM]
≤ 10 | ≤ 10 | ≤ 10 | ≤ 10 | ≤ 10 | ≤ 10 | ≤ 10 | ≤ 10 |  |  |  |  |  |  |  | O=C(c1ccccc1F)c1c[nH]c2nccc(-c3cc(F)cc(F)c3)c12 [Compound P-0097] |  | 
≤ 10 |  | ≤ 10 | ≤ 10 |  | ≤ 10 | ≤ 10 |  |  |  |  |  |  |  |  | O=C(c1cccc(F)c1F)c1c[nH]c2nccc(-c3cc(F)cc(F)c3)c12 [Compound P-0205] | ≤ 10 | 
